Test results as given in patent publication US10112926B2 (priority 2014, dated 2018).
Structures can show the parent of a compound that is named as a salt. Where two headings read alike, the source gives them in different places.

What was measured:
PI 3-kinase beta = PI 3-kinase beta (Homo sapiens (Human), UniProt P42338); details: read-out: Assay B PI3Kβ IC50
[1] = biological target: T1, PI 3-kinase beta (Rat-1 pBABEpuro Myr-HA-hp110 beta cells) (Homo sapiens (Human), UniProt P42338); assay: cell-based
Description: (§1) Cellular Assays for PI 3-Kinase Alpha (H2), Beta (I2) and Delta (J2): HTRF (Homogeneous Time Resolved Fluorescence) Format
(§2) All cell lines were cultivated in complete growth medium (DMEM high glucose GlutaMAX™ Pyruvate, 10% (v/v) fetal bovine serum, 0.1 mM MEM NEAA, 25 mM HEPES, puromycin 10 μg/mL, 100 U/ml Penicillin, 100 μg/ml Streptomycin) to 90% confluency at 37° C./5% CO2/90% humidity in a humidified CO2 incubator and were split twice a week.
(§3) Semi-automated preparation of cell lysates: For low (inhibited) controls, 0.9 mM NVP-BGT226-AF-1 in 90% (v/v) DMSO was added to the compound master plate. For compound testing, the cells were seeded at a density of 4000 (Rat-1_PI3Kdelta), 8000 (Rat-1_PI3Kalpha), or 6500 (Rat-1_PI3Kbeta) cells in 30 μl complete growth medium into cell culture treated 384-well plates and were grown at 37° C./5% CO2/90% humidity for 24 h. 10 μl of the compound predilutions were transferred to the cells. After treatment with compound for 1 h, medium was removed and cells were lysed by the addition of 20 μl lysis buffer supplemented with blocking buffer. Detection of p-AKT(Ser473) was performed with the HTRF pAKT (Ser473) assay kit according to the manufacturer's instructions using 16 μl of cell lysate in a total detection volume of 20 μl.

Vps34 = Vps34 (Homo sapiens (Human), UniProt Q8NEB9); details: read-out: Assay C VPS34 IC50
PI 4-kinase beta = PI 4-kinase beta (Homo sapiens (Human), UniProt Q9UBF8); details: read-out: Assay D PI4Kβ IC50
PI 3-kinase gamma = PI 3-kinase gamma (Homo sapiens (Human), UniProt P48736)
[2] = biological target: T2, PI 3-kinase alpha (Rat-1 pBABEpuro Myr-HA-hp110 alpha cells) (Homo sapiens (Human), UniProt P42336); assay: cell-based
Description: as §1, §2, §3

PI 3-kinase alpha = PI 3-kinase alpha (Homo sapiens (Human), UniProt P42336); details: read-out: Assay A PI3Kα IC50
[3] = biological target: PI 3-kinase gamma (U937 cells, MIP1α-stimulated AKT phosphorylation) (Homo sapiens (Human), UniProt P48736); details: read-out: Assay K2 PI3Kγ IC50
mTOR = mTOR (Homo sapiens (Human), UniProt P42345); details: read-out: Assay G mTOR IC50
[4] = biological target: T1, PI 3-kinase beta (Rat-1 pBABEpuro Myr-HA-hp110 beta cells); assay: cell-based; details: Assay I PI3Kβ IC50
Excerpt: (§4) Cellular Assays for PI 3-Kinase Alpha (H1), Beta (I1) and Delta (J1): Surefire Format
(§5) The brand name SureFire denotes AlphaScreen assays that are adapted to quantify the phosphorylation of endogenous cellular proteins in cell lysates, by using matched antibody pairs, which consist of an anti-phospho-kinase and an anti-kinase antibody. The assay allows characterization of kinase signaling in cells as well as measurement of kinase inhibitor effects.
(§6) The p-Akt (S473) SureFire assay measures the phosphorylation of endogenous cellular Akt 1/2 at Ser473 in cell lysates. Using Rat-1 cells stably expressing myr-HA-tagged versions of the human PI3Kdelta, PI3Kalpha, or PI3Kbeta p110 catalytic subunit isoforms, the assay was developed as a two-plate protocol in a 384-well format.
(§7) For compound testing, the cells were seeded at a density of 4000 (Rat-1_PI3Kdelta), 7500 (Rat-1_PI3Kalpha), or 6200 (Rat-1_PI3Kbeta) cells in 20 μl complete growth medium into cell culture treated 384-well plates and were grown at 37° C./5% CO2/90% humidity for 24 h. Shortly before compound transfer, the complete medium was removed, 30 μl assay buffer (DMEM high glucose, 1×MEM NEAA, 10 mM HEPES, 2 mM L-glutamine, 0.1% (w/v) BSA) was added and 10 μl of the compound predilutions were transferred to the cells. […]

PI 3-kinase delta = PI 3-kinase delta (Homo sapiens (Human), UniProt O00329); details: read-out: Assay F PI3Kδ IC50
[5] = biological target: T2, PI 3-kinase alpha (Rat-1 pBABEpuro Myr-HA-hp110 alpha cells); assay: cell-based; details: Assay H PI3Kα IC50
Excerpt: as §4, §5, §6, §7

Sequence of Vps34 (Q8NEB9 whole entry): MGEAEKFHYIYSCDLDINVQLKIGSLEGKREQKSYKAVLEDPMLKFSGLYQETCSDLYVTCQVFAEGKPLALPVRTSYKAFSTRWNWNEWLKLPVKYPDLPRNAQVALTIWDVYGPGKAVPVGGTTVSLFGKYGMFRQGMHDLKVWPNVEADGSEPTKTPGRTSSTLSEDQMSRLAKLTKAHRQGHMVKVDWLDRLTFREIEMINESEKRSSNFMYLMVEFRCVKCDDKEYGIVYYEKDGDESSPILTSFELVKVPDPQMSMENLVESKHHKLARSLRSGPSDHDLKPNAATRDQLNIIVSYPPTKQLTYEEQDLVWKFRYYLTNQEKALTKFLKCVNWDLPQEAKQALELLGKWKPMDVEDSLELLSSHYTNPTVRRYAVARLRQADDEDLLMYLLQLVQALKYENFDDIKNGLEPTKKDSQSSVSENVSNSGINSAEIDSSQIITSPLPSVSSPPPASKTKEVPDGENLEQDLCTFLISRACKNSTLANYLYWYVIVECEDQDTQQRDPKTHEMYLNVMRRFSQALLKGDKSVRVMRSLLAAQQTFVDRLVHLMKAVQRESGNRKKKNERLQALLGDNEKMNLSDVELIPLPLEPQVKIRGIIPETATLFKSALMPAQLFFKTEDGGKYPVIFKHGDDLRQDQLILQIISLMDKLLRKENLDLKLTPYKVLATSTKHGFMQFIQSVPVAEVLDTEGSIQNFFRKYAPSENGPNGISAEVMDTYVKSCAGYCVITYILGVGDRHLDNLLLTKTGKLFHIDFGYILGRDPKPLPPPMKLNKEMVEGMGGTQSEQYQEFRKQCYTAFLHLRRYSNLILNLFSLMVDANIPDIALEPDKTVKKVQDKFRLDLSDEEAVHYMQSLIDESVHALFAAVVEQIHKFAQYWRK
Sequence of PI 3-kinase alpha (P42336 whole entry, looked up): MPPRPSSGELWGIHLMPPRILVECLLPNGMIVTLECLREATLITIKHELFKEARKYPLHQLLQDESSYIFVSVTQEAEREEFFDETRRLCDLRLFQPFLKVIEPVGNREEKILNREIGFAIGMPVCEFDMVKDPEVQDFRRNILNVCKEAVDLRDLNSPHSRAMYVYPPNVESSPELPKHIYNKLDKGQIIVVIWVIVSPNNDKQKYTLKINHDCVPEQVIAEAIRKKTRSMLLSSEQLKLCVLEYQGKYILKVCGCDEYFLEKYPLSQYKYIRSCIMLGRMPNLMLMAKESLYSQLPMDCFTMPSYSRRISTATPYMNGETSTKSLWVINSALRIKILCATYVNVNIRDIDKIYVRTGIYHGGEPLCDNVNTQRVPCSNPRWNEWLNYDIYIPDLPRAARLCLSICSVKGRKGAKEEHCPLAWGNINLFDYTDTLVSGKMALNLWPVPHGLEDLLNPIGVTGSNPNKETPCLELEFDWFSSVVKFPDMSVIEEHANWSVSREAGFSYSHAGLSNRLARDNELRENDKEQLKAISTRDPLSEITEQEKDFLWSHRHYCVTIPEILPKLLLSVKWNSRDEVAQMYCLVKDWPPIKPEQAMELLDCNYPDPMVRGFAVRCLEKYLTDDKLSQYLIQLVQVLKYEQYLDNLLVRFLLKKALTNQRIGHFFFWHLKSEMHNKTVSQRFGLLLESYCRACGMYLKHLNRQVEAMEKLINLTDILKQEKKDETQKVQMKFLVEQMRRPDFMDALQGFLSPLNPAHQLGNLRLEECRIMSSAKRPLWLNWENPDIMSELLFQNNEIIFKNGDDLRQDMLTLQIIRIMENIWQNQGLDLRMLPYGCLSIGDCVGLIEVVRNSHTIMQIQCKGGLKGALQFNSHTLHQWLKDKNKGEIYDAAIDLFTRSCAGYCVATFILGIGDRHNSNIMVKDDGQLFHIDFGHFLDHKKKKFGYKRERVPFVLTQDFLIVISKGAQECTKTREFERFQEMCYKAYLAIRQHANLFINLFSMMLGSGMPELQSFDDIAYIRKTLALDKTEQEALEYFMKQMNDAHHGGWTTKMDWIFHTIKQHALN
Sequence of PI 3-kinase alpha (P27986 whole entry partner, looked up): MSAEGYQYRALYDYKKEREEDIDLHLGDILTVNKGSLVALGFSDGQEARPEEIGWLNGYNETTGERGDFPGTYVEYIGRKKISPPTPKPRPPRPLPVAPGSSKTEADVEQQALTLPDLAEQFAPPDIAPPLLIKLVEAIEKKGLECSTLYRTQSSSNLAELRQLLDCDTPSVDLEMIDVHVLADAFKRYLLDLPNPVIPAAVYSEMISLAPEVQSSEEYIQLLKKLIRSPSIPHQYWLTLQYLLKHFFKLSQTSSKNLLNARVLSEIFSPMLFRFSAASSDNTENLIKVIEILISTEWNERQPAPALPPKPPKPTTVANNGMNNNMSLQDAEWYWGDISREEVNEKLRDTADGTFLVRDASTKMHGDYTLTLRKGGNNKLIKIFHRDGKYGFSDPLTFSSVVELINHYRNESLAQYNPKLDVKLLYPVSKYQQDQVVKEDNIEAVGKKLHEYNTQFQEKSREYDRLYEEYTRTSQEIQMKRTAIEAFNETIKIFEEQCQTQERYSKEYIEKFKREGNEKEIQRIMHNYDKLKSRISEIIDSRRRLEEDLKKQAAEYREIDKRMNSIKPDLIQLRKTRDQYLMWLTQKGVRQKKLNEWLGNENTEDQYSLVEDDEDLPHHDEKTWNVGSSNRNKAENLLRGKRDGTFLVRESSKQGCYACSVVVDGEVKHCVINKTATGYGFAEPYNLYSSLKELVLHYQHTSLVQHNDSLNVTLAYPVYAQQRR
T1 sequence (P42338 whole entry, looked up): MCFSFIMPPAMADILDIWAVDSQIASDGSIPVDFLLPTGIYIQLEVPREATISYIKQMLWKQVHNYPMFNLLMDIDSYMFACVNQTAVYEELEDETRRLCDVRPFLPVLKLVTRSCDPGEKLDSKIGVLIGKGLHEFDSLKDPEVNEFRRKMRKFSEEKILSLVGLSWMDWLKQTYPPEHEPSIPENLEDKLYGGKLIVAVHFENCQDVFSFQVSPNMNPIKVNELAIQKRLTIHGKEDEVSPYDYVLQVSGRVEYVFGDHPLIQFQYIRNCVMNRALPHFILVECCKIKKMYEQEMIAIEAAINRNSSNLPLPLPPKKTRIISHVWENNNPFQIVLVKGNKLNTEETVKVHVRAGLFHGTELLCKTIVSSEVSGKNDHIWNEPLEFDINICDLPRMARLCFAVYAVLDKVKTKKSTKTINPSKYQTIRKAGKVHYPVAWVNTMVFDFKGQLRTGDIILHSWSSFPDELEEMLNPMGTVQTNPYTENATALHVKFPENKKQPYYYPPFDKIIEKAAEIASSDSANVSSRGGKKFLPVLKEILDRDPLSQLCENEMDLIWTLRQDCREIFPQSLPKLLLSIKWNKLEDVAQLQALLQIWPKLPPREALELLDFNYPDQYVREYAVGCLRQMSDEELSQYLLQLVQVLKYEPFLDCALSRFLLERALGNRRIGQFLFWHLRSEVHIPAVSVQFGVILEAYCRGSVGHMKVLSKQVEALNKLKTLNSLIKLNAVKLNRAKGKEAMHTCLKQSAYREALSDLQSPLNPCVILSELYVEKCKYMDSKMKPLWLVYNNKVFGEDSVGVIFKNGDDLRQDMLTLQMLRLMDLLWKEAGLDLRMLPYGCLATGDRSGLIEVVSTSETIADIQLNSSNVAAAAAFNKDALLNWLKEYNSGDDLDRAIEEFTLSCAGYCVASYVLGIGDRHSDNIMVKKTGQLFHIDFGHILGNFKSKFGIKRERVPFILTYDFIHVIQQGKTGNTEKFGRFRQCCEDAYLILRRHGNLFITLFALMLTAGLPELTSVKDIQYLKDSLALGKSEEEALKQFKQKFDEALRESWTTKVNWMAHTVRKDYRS
T1 sequence (Q63787 whole entry partner, looked up): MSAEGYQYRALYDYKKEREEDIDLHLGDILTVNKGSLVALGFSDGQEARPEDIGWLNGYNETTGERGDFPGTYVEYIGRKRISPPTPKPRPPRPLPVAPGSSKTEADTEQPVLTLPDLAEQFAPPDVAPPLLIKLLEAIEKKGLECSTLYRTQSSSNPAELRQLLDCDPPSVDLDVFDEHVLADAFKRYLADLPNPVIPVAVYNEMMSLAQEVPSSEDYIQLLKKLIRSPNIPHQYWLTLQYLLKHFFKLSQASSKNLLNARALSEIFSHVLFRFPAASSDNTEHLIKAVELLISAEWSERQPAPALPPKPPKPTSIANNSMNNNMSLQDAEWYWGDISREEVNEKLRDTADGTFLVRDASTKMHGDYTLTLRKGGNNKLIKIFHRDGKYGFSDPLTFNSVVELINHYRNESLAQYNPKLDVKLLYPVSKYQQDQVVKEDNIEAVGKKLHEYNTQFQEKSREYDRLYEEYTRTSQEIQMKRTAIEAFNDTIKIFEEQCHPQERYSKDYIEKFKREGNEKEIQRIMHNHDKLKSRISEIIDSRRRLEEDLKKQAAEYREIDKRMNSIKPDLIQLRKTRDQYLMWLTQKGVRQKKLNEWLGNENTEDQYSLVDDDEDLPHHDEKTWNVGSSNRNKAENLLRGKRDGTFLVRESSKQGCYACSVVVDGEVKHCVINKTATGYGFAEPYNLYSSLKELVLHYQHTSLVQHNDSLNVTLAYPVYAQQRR
Sequence of PI 3-kinase beta (P42338 whole entry, looked up): as the sequence (P42338 whole entry, looked up) above
Sequence of PI 3-kinase beta (P27986 whole entry partner, looked up): as the sequence (P27986 whole entry partner, looked up) above
T2 sequence (P42336 whole entry, looked up): as the sequence (P42336 whole entry, looked up) above
T2 sequence (Q63787 whole entry partner, looked up): as the sequence (Q63787 whole entry partner, looked up) above

Cc1cc(-c2cc(-c3cc(S(=O)(=O)N4C[C@H](C)[C@@H](O)C4)ccc3C)cnc2N)on1 (relative stereo) [Example 101.3, trans-1-((3-(6-amino-5-(3-methylisoxazol-5-yl)pyridin-3-yl)-4-methylphenyl)sulfonyl)-4-methylpyrrolidin-3-ol]
IC50 (PI 3-kinase beta): 5.1 µM
IC50 [1]: > 10 µM
IC50 (Vps34): > 10 µM
IC50 (PI 4-kinase beta): 3.6 µM

Cc1noc(-c2cc(-c3cc(S(=O)(=O)NCC(C)(C)O)ccc3C(F)(F)F)cnc2N)n1 [3-(6-amino-5-(3-methyl-1,2,4-oxadiazol-5-yl)pyridin-3-yl)-N-(2-hydroxy-2-methylpropyl)-4-(trifluoromethyl)benzenesulfonamide]
activity in assay E (PI 3-kinase gamma): inactive

Cc1noc(-c2cc(-c3cc(C(F)(F)F)cc(S(=O)(=O)NCC(C)(C)O)c3)cnc2N)n1 [3-(6-amino-5-(3-methyl-1,2,4-oxadiazol-5-yl)pyridin-3-yl)-N-(2-hydroxy-2-methylpropyl)-5-(trifluoromethyl)benzenesulfonamide]
activity in assay E (PI 3-kinase gamma): inactive

Cc1cc(-c2cnc(N)c(-c3nc(C)no3)c2)cc(S(=O)(=O)NCC(C)(C)O)c1 [3-(6-amino-5-(3-methyl-1,2,4-oxadiazol-5-yl)pyridin-3-yl)-N-(2-hydroxy-2-methylpropyl)-5-methylbenzenesulfonamide]
activity in assay E (PI 3-kinase gamma): inactive

Cc1cc(-c2cc(-c3cc(S(=O)(=O)N4CC(N(C)C)C4)ccc3C)cnc2N)on1 [Example 19.19, 5-(5-((3-(dimethylamino)azetidin-1-yl)sulfonyl)-2-methylphenyl)-3-(3-methylisoxazol-5-yl)pyridin-2-amine acetic acid salt]
IC50 (Vps34): > 10 µM
IC50 [2]: > 10 µM
IC50 (PI 3-kinase alpha): 3.1 µM
IC50 (PI 4-kinase beta): 8.5 µM

Cc1cc(-c2cc(-c3cc(S(=O)(=O)NCC4(O)CCC4)ccc3C)cnc2N)on1 [Example 37.35, 3-(6-Amino-5-(3-methylisoxazol-5-yl)pyridin-3-yl)-N-((1-hydroxycyclobutyl)methyl)-4-methylbenzenesulfonamide]
IC50 (Vps34): > 10 µM
IC50 [3]: 0.101 µM
IC50 (mTOR): > 10 µM

Cc1ccc(S(=O)(=O)N[C@H]2CC[C@H](O)CC2)cc1-c1cnc(N)c(-c2nc(CC(F)(F)F)no2)c1 [Example 78, trans-3-(6-Amino-5-(3-(2,2,2-trifluoroethyl)-1,2,4-oxadiazol-5-yl)pyridin-3-yl)-N-((1r,4r)-4-hydroxycyclohexyl)-4-methylbenzenesulfonamide]
IC50 (PI 3-kinase beta): 2.5 µM
IC50 (Vps34): > 10 µM
IC50 [4]: > 10 µM
IC50 (PI 4-kinase beta): 0.49 µM

Cc1ncc(-c2cc(-c3cc(S(=O)(=O)N4CC(CO)C4)ccc3C)cnc2N)s1 [Example 83.1, (1-((3-(6-Amino-5-(2-methylthiazol-5-yl)pyridin-3-yl)-4-methylphenyl)sulfonyl)azetidin-3-yl)methanol]
IC50 (PI 3-kinase beta): 2.5 µM
IC50 (PI 3-kinase alpha): 0.4 µM
IC50 (PI 3-kinase delta): 1.3 µM

Cc1ncc(-c2cc(-c3cc(S(=O)(=O)NCC4(O)COC4)ccc3C)cnc2N)s1 [Example 83.3, 3-(6-amino-5-(2-methylthiazol-5-yl)pyridin-3-yl)-N-((3-hydroxyoxetan-3-yl)methyl)-4-methylbenzenesulfonamide]
IC50 (PI 3-kinase beta): 3 µM
IC50 (Vps34): 9.7 µM
IC50 (PI 3-kinase alpha): 0.57 µM
IC50 (PI 4-kinase beta): 1.7 µM
IC50 (PI 3-kinase delta): 0.9 µM

Cc1noc(-c2cc(-c3cc(S(=O)(=O)NCC(C)(C)O)c(C)cc3C)cnc2N)n1 [Example 100]
IC50 (PI 3-kinase beta): 2.25 µM
IC50 (Vps34): > 10 µM
IC50 [4]: > 10 µM
IC50 (PI 3-kinase alpha): 0.26 µM
IC50 (PI 4-kinase beta): 4.25 µM
IC50 [5]: 4.14 µM
